Laboratory results as given in ChEMBL document CHEMBL1177834, “ADMET rules of thumb II: A comparison of the effects of common substituents on a range of ADMET parameters” (Bioorg Med Chem, 2009).

biological target: Cytochrome P450 2C9 (Homo sapiens, UniProt P11712); assay: Inhibition of CYP2C9; type: ADME
Sequence (P11712 whole entry): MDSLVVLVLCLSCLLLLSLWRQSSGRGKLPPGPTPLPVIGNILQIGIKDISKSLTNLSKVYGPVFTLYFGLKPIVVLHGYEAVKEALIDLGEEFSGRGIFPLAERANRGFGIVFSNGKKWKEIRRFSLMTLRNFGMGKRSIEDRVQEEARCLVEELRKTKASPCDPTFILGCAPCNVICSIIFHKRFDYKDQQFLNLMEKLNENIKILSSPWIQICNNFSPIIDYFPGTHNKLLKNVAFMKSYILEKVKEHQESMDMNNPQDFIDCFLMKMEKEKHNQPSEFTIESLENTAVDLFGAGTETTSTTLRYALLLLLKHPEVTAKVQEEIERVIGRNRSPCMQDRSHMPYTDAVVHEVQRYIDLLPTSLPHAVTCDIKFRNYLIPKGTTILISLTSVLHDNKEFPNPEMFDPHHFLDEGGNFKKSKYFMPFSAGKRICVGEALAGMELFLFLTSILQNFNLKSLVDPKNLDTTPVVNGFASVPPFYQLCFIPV

O=C(Cn1c(CCc2cccc(F)c2F)nc(=O)c2cccnc21)N(Cc1ccc(-c2ccc(C(F)(F)F)cc2)cc1)C1CCN(c2ccncn2)CC1 and O=C(Cn1c(CCc2cccc(F)c2F)nc(=O)c2ccccc21)N(Cc1ccc(-c2ccc(C(F)(F)F)cc2)cc1)C1CCN(c2ccncn2)CC1 are within 1.5-fold of each other in IC50: 0.1 µM for the first, 0.0794 µM for the second.

First: Cc1ccc2c(N3CCN(CCc4ccc(F)c(-c5cncnc5)c4)CC3)cccc2n1
Second: Cc1ccc2c(N3CCN(CCc4cccc(-c5cncnc5)c4)CC3)cccc2n1
The IC50 of the first is 2-fold lower: 10 µM for the first, 20 µM for the second. The first is the more potent here.

O=C(Cn1c(CCc2cccc(F)c2F)nc(=O)c2ccccc21)N(Cc1ccc(-c2ccc(C(F)(F)F)cc2)cc1)C1CCNCC1 and O=C(Cn1c(CCc2cccc(F)c2F)nc(=O)c2cccnc21)N(Cc1ccc(-c2ccc(C(F)(F)F)cc2)cc1)C1CCNCC1 are within 1.5-fold of each other in IC50: 15.8 µM for the first, 20 µM for the second.

Cc1ccc2c(N3CCN(CCc4ccc(F)cc4)CC3)cccc2n1 and Cc1ccc2c(N3CCN(CCc4ccccc4)CC3)cccc2n1 are within 1.5-fold of each other in IC50: 31.6 µM for the first, 39.8 µM for the second.

O=C(N[C@@H](c1cccc(F)c1)C1CC1)c1c(Cc2cncnc2)c(-c2ccccc2)nc2ccccc12 and Cc1c(-c2ccccc2)nc2ccccc2c1C(=O)N[C@@H](c1cccc(F)c1)C1CC1 are within 1.5-fold of each other in IC50: 10 µM for the first, 7.94 µM for the second.

First: Cc1c(-c2cccs2)nc2ccccc2c1C(=O)N[C@@H](C)C1CCCCC1
Second: C[C@H](NC(=O)c1c(Cc2cncnc2)c(-c2cccs2)nc2ccccc12)C1CCCCC1
The IC50 of the first is 1.6-fold lower: 20 µM for the first, 31.6 µM for the second.
